Each molecule was assayed against T1, IDO1 (Homo sapiens, UniProt P14902) (assay: Cell-based (HeLa) assay for measurement of IDO1 inhibition (kynurenine levels in supernatant after IFNγ induction)). Details: HeLa cells, IFNγ-induced IDO1, kynurenine in supernatant after 48 hour incubation; geometric mean of a minimum of four determinations.
T1 construct: HeLa cells were treated with a test compound in the presence of IFNγ, which induces IDO1 expression; host or cells: H1-HeLa cells, IDO1 induced with IFNγ
Summary of the method: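 IDO1 activity is read as kynurenine released into the medium, detected with Ehrlich's reagent (p-dimethylaminobenzaldehyde) at 480 nm after TCA treatment. HeLa cells were exposed 48 h to compounds in 0.5% DMSO alongside IFNγ induction. Values normalized to no-IFNγ and IFNγ controls; four-parameter EC50 given as geometric mean of ≥4 determinations.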

T1 sequence (P14902 whole entry): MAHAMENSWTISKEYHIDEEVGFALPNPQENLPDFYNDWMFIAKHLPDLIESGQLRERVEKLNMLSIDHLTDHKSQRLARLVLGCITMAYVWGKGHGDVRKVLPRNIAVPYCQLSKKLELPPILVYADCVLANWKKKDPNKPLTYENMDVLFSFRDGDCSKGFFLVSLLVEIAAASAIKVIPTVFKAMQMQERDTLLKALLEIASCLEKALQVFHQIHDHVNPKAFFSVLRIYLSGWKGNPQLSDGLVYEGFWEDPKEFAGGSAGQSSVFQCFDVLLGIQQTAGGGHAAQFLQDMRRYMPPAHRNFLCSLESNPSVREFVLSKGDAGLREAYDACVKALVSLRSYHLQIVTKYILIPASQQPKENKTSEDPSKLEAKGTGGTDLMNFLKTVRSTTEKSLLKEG

SMILES	EC50
O/N=C(\Nc1cc2ccccc2cc1Cl)c1ccnc2nc[nH]c12 [Example 103, N-(3-Chloronaphthalen-2-yl)-N′-hydroxy-1H-imidazo[4,5-b]pyridine-7-carboximidamide]	8.07 µM
O/N=C(\Nc1ccc(F)c(Cl)c1)c1ccnc2nc(-c3cccnc3)[nH]c12 [Example 147, N-(3-Chloro-4-fluorophenyl)-N′-hydroxy-2-(pyridin-3-yl)-1H-imidazo[4,5-b]pyridine-7-carboximidamide]	1.93 µM
O/N=C(\Nc1ccc(F)c(Cl)c1)c1ccnc2nc(NCCCN3CCOCC3)[nH]c12 [Example 221, N-(3-chloro-4-fluorophenyl)-N′-hydroxy-2-((3-morpholinopropyl)amino)-1H-imidazo[4,5-b]pyridine-7-carboximidamide]	0.899 µM
O/N=C(\Nc1cc(Cl)ccc1F)c1ccnc2nc[nH]c12 [Example 60, N-(5-Chloro-2-fluorophenyl)-N′-hydroxy-1H-imidazo[4,5-b]pyridine-7-carboximidamide]	0.322 µM
O/N=C(\Nc1ccc(F)c(Cl)c1)c1c(F)ccc2nc[nH]c12 [Example 3, N-(3-Chloro-4-fluorophenyl)-6-fluoro-N′-hydroxy-1H-benzo[d]imidazole-7-carboximidamide]	4.8 µM
Cn1cnc2c(/C(=N/O)Nc3ccc(F)c(Cl)c3)ccnc21 [Example 197, N-(3-Chloro-4-fluorophenyl)-N′-hydroxy-3-methyl-3H-imidazo[4,5-b]pyridine-7-carboximidamide]	5.46 µM
O/N=C(\Nc1ccc(F)c(Cl)c1)c1ccnc2nc(CNCC(F)(F)F)[nH]c12 [Example 118, N-(3-Chloro-4-fluorophenyl)-N′-hydroxy-2-(((2,2,2-trifluoroethyl)amino)methyl)-1H-imidazo[4,5-b]pyridine-7-carboximidamide]	4.64 µM
O/N=C(\Nc1ccc(F)c(Cl)c1)c1ccc(F)c2nc[nH]c12 [Example 5, N-(3-Chloro-4-fluorophenyl)-4-fluoro-N′-hydroxy-1H-benzo[d]imidazole-7-carboximidamide]	0.542 µM
O/N=C(\Nc1cc(Cl)ccc1Cl)c1ccnc2nc[nH]c12 [Example 76, N-(2,5-Dichlorophenyl)-N′-hydroxy-1H-imidazo[4,5-b]pyridine-7-carboximidamide]	0.769 µM
O=S1(=O)CCN(CCNc2nc3nccc(/C(=N/O)Nc4ccc(F)c(Cl)c4)c3[nH]2)CC1 [Example 218, N-(3-chloro-4-fluorophenyl)-2-((2-(1,1-dioxidothiomorpholino)ethyl)amino)-N′-hydroxy-1H-imidazo[4,5-b]pyridine-7-carboximidamide]	> 10 µM
CCNCCc1nc2nccc(/C(=N/O)Nc3ccc(F)c(Cl)c3)c2[nH]1 [Example 204, N-(3-chloro-4-fluorophenyl)-2-(2-(ethylamino)ethyl)-N′-hydroxy-3H-imidazo[4,5-b]pyridine-7-carboximidamide]	2.19 µM
CN(C)CC(O)c1nc2nccc(/C(=N/O)Nc3ccc(F)c(Cl)c3)c2[nH]1 (stereo not drawn) [Example 195, N-(3-Chloro-4-fluorophenyl)-2-(2-(dimethylamino)-1-hydroxyethyl)-N′-hydroxy-1H-imidazo[4,5-b]pyridine-7-carboximidamide]	1.16 µM
O/N=C(\Nc1ccc(F)c(Cl)c1)c1cc(F)c(F)c2nc[nH]c12 [Example 10, N-(3-chloro-4-fluorophenyl)-4,5-difluoro-N′-hydroxy-1H-benzo[d]imidazole-7-carboximidamide]	0.438 µM
CN1CCC(Nc2nc3nccc(/C(=N/O)Nc4ccc(F)c(Cl)c4)c3[nH]2)C1 (stereo not drawn) [Example 203, N-(3-Chloro-4-fluorophenyl)-N′-hydroxy-2-[(1-methylpyrrolidin-3-yl)amino]-1H-imidazo[4,5-b]pyridine-7-carboximidamide]	1.34 µM
Cc1ccc(N/C(=N\O)c2ccnc3nc[nH]c23)cc1 [Example 94, N′-Hydroxy-N-(p-tolyl)-1H-imidazo[4,5-b]pyridine-7-carboximidamide]	6.35 µM
CN(C)CCCc1nc2c(F)c(F)cc(/C(=N/O)Nc3ccc(F)c(Cl)c3)c2[nH]1 [Example 199, N-(3-Chloro-4-fluorophenyl)-2-[3-(dimethylamino)propyl]-6,7-difluoro-N′-hydroxy-3H-benzimidazole-4-carboximidamide]	4.49 µM
ON=C(Nc1ccc(F)c(Cl)c1)c1ccnc2nc(NCCN3CCC(F)(F)CC3)[nH]c12 [Example 214, N-(3-chloro-4-fluorophenyl)-2-((2-(4,4-difluoropiperidin-1-yl)ethyl)amino)-N′-hydroxy-1H-imidazo[4,5-b]pyridine-7-carboximidamide]	1.91 µM

Other lines, results leading:

EC50	SMILES
> 10 µM	O/N=C(\Nc1ccc(F)c(Cl)c1)c1ccnc2nc(N3CC[C@H](O)C3)[nH]c12 [Example 280, (S)—N-(3-chloro-4-fluorophenyl)-N′-hydroxy-2-(3-hydroxypyrrolidin-1-yl)-1H-imidazo[4,5-b]pyridine-7-carboximidamide]
3.44 µM	Cn1nccc1CNc1nc2c(F)c(F)cc(/C(=N/O)Nc3ccc(F)c(Cl)c3)c2[nH]1 [Example 299, N-(3-chloro-4-fluorophenyl)-4,5-difluoro-N′-hydroxy-2-(((1-methyl-1H-pyrazol-5-yl)methyl)amino)-1H-benzo[d]imidazole-7-carboximidamide]
0.442 µM	O/N=C(\Nc1ccc(F)c(Cl)c1)c1ccnc2nc(NCCN3CCCC(F)C3)[nH]c12 (stereo not drawn) [Example 237, N-(3-chloro-4-fluorophenyl)-2-((2-(3-fluoropiperidin-1-yl)ethyl)amino)-N′-hydroxy-1H-imidazo[4,5-b]pyridine-7-carboximidamide]
0.853 µM	O/N=C(\Nc1ccc(F)c(Br)c1)c1ccnc2nc(NCCN3CCOCC3)[nH]c12 [Example 238, N-(3-bromo-4-fluorophenyl)-N′-hydroxy-2-((2-morpholinoethyl)amino)-1H-imidazo[4,5-b]pyridine-7-carboximidamide]

Same assay, conditions: HeLa cells, IFNγ-induced IDO1, kynurenine in supernatant, 48 hour incubation; geometric mean of a minimum of four determinations

EC50	SMILES
0.319 µM	CN(C)CCNc1nc2c(F)ccc(/C(=N/O)Nc3cccc(Br)c3)c2[nH]1 [Example 383, N-(3-bromophenyl)-2-((2-(dimethylamino)ethyl)amino)-4-fluoro-N′-hydroxy-1H-benzo[d]imidazole-7-carboximidamide]
> 10 µM	CC(=O)NCCNc1nc2nccc(/C(=N/O)Nc3ccc(F)c(Cl)c3)c2[nH]1 [Example 404, N-(2-((7-(N-(3-chloro-4-fluorophenyl)-N′-hydroxycarbamimidoyl)-1H-imidazo[4,5-b]pyridin-2-yl)amino)ethyl)acetamide]
0.414 µM	O/N=C(\Nc1cccc(Cl)c1)c1cc(F)c(F)c2nc(NCCN3CCCC3)[nH]c12 [Example 330, N-(3-chlorophenyl)-4,5-difluoro-N′-hydroxy-2-((2-(pyrrolidin-1-yl)ethyl)amino)-1H-benzo[d]imidazole-7-carboximidamide]
3.27 µM	Nc1ccccc1CNc1nc2c(F)c(F)cc(/C(=N/O)Nc3ccc(F)c(Cl)c3)c2[nH]1 [Example 347, 2-((2-aminobenzyl)amino)-N-(3-chloro-4-fluorophenyl)-4,5-difluoro-N′-hydroxy-1H-benzo[d]imidazole-7-carboximidamide]
> 10 µM	O/N=C(\Nc1ccc(F)c(Cl)c1)c1ccnc2nc(NCc3ncccn3)[nH]c12 [Example 494, N-(3-chloro-4-fluorophenyl)-N′-hydroxy-2-((pyrimidin-2-ylmethyl)amino)-1H-imidazo[4,5-b]pyridine-7-carboximidamide]
2.54 µM	Cn1ccnc1CNc1nc2c(F)c(F)cc(/C(=N/O)Nc3ccc(F)c(Cl)c3)c2[nH]1 [Example 349, N-(3-chloro-4-fluorophenyl)-4,5-difluoro-N′-hydroxy-2-(((1-methyl-1H-imidazol-2-yl)methyl)amino)-1H-benzo[d]imidazole-7-carboximidamide]
0.483 µM	Nc1nc2cc(F)cc(/C(=N/O)Nc3cccc(Br)c3)c2[nH]1 [Example 372, 2-amino-N-(3-bromophenyl)-5-fluoro-N′-hydroxy-1H-benzo[d]imidazole-7-carboximidamide]
0.325 µM	CN1CC[C@H](Nc2nc3c(F)c(F)cc(/C(=N/O)Nc4ccc(F)c(Cl)c4)c3[nH]2)C1 [Example 447, (S)—N-(3-chloro-4-fluorophenyl)-4,5-difluoro-N′-hydroxy-2-((1-methylpyrrolidin-3-yl)amino)-1H-benzo[d]imidazole-7-carboximidamide]
3.01 µM	CN(C)CCSc1nc2c(F)c(F)cc(/C(=N/O)Nc3ccc(F)c(Cl)c3)c2[nH]1 [Example 488, N-(3-chloro-4-fluorophenyl)-2-((2-(dimethylamino)ethyl)thio)-4,5-difluoro-N′-hydroxy-1H-benzo[d]imidazole-7-carboximidamide]
0.186 µM	OCC1CCCN1CCNc1nc2c(F)c(F)cc(/C(=N/O)Nc3ccc(F)c(Cl)c3)c2[nH]1 (stereo not drawn) [Example 490, N-(3-chloro-4-fluorophenyl)-4,5-difluoro-N′-hydroxy-2-((2-(2-(hydroxymethyl)pyrrolidin-1-yl)ethyl)amino)-1H-benzo[d]imidazole-7-carboximidamide]
3.96 µM	CN(C)C(=O)CNc1nc2c(F)c(F)cc(/C(=N/O)Nc3ccc(F)c(Cl)c3)c2[nH]1 [Example 301, 2-((7-(N-(3-chloro-4-fluorophenyl)-N′-hydroxycarbamimidoyl)-4,5-difluoro-1H-benzo[d]imidazol-2-yl)amino)-N,N-dimethylacetamide]
1.81 µM	CN1CC(N)[C@H](Nc2nc3c(F)c(F)cc(/C(=N/O)Nc4ccc(F)c(Cl)c4)c3[nH]2)C1 (stereo partly drawn) [Example 435, 2-(((3R)-4-amino-1-methylpyrrolidin-3-yl)amino)-N-(3-chloro-4-fluorophenyl)-4,5-difluoro-N′-hydroxy-1H-benzo[d]imidazole-7-carboximidamide]

— US9951065B2 (Gilead Sciences, Inc., priority 2015, dated 2018)
